In patent publication US20260083731A1, “METHODS OF TREATING UVEAL MELANOMA WITH A PKC INHIBITOR” (IDEAYA BIOSCIENCES, INC., priority 2022, published 2026):

Experiments:
[1] = test system: uveal melanoma cells harboring GNAQ mutations; conditions: by targeting PKC/ERK1/2 and PKC/NF-xB pathways; X. Wu et al. 2012; cited from earlier work
[2] = test system: ocular tumor (uveal melanoma); experiment: PET scan of metabolic activity of the ocular tumor (FDG avidity, SUV) in treated patients; type: in vivo, human
Description: (§1) A patient (patient 2) (enrolled in NCT02601378) with metastatic disease to liver and peritoneum at the time of diagnosis, and with primary lesion intact (intact ocular tumor) was treated with Compound 1 (300 mg BID).
A patient (patient 4) (enrolled in NCT05187884) was treated with Compound 1 (300 mg BID) for about 28 days, prior to the planned interventional procedure (e.g., enucleation). A 31% ocular tumor reduction in maximal apical height by ocular ultrasound was observed (after about 28 days administration of Compound 1).

[3] = test system: ocular tumor (uveal melanoma); experiment: Neoadjuvant treatment of uveal melanoma patients, ocular tumor size by ocular ultrasound; type: in vivo, human; conditions: vs baseline
Excerpt: Patients can meet all of the following inclusion criteria: • Patient must be at least 18 years of age. • Patient is able to provide written, informed consent before initiation of any study related-procedures, and is able, in the opinion of the investigator, to comply with all the requirements of the study. • Primary diagnosis of uveal melanoma as clinically determined by the treating investigator planned to undergo enucleation (prior plaque brachytherapy is permitted) • Life expectancy >3 months. • Able to safely swallow orally administered medication. • Patients with a prior history of or clinically stable concurrent malignancy are eligible for enrolment provided the malignancy is clinically insignificant, no treatment is required, and the patient is clinically stable. • Patients with a history of squamous or basal cell carcinoma of the skin or carcinoma in the situ of the cervix may be enrolled. • Patients with prostate cancer with an elevated PSA not requiring treatment may be enrolled. • Patient has Eastern Cooperative Oncology Group (ECOG) performance status 0-1 (Karnofsky 70%). • Patient has adequate organ function at screening: • Absolute neutrophil count ≥1500/mm3 without the use of hematopoietic growth factors • Platelet count ≥75,000/mm3 (must be at least 2 weeks post-platelet transfusion and not receiving platelet-stimulating agents) • Haemoglobin ≥8.0 g/dL (must be at least 2 weeks post-red blood cell transfusion and not receiving erythropoietic-stimulating agents) • Total bilirubin ≤1.5× the upper limit of normal (ULN).
The presence of any of the following can exclude a patient from being eligible for the study: • Previous treatment with a PKC inhibitor • Have adverse events (AEs) from prior anti-cancer therapy that have not resolved to Grade ≤1 except for alopecia, prior peripheral neuropathy, or anemia. Endocrinopathies resulting from previous immunotherapy are considered part of the medical history and not an AE. • Untreated or symptomatic malignant lesions in the central nervous system (CNS). • Known human immunodeficiency virus (HIV) or acquired immunodeficiency syndrome (AIDS)-related illness. • Active infection requiring therapy (except nail fungus), positive tests for Hepatitis B surface antigen (HBsAg) with detected Hepatitis B virus (HBV) DNA or positive Hepatitis C antibody with detected Hepatitis C virus (HCV) RNA. • Prior gastrectomy or upper bowel removal or any other gastrointestinal disorder or defect e.g., malabsorption disorder such as Crohn's disease or ulcerative colitis, that would interfere with absorption of Compound 1. • Patients who are receiving treatment with medications that cannot be discontinued prior to study entry and that are considered to be any of the following • known to be strong inducers or inhibitors of CYP3A4/5 • known to be substrates of CYP3A4/5, OAT3, OATP1B1, and MATE1/2-K with a narrow therapeutic index • Females who are pregnant or breastfeeding: • Women of childbearing potential must not be considering getting pregnant during the study. • Patients of reproductive potential (male & female) must practice an effective method of contraception during treatment and for 30 days following the last dose of Compound 1. […] If electrolytes are abnormal, they may be corrected, and baseline ECGs should be repeated. • Known to have previously received Compound 1 • Presence of any other condition that may increase the risk associated with study participation or may interfere with the interpretation of study results and, in the opinion of the investigator, would make the patient inappropriate for entry into the study.
A patient (patient 1) (enrolled in NCT05187884) was treated with Compound 1 (300 mg BID) for 27 days, prior to potential planned interventional procedure comprising enucleation. A 22% ocular tumor reduction in maximal apical height by ocular ultrasound (after about 28 days administration of Compound 1) was observed prior to the planned interventional procedure. […]

[4] = test system: ocular tumor (uveal melanoma); experiment: Clinical outcome of the affected eye in treated uveal melanoma patients; type: in vivo, human
Description: as §1
A patient (patient 5) (enrolled in NCT05187884) was treated with Compound 1 (300 mg BID) for about 28 days. A 13% ocular tumor reduction in maximal apical height by ocular ultrasound was observed (after about 28 days administration of Compound 1). The patient is continuing on treatment to maximal benefit up to 6 months prior to planned enucleation. The patient was continuing treatment with Compound 1 (300 mg BID) for additional about 3 months (in addition to about 28 days as described above), and a 24% ocular tumor reduction in maximal apical height by ocular ultrasound was observed. […] The patient continues on adjuvant therapy for potentially up to 6 months.
A patient (patient 6) (enrolled in NCT05187884) was treated with Compound 1 (300 mg BID) for about 56 days, prior to the planned interventional procedure (e.g. enucleation). A 11% ocular tumor reduction in maximal apical height and 23% in Largest Basal Diameter by ocular ultrasound was observed. The patient is continuing on treatment to maximal benefit up to 6 months prior to planned enucleation. The patient continued treatment with Compound 1 (300 mg BID) for about 2 months (in addition to the 56 days as described above), and a 24% ocular tumor reduction in maximal apical height by ocular ultrasound was observed. The patient continued treatment with Compound 1 (300 mg BID) for about 1 month (in addition to about 4 months described above), and a 45% ocular tumor reduction in maximal apical height and 63% reduction in Largest Basal Diameter by ocular ultrasound was observed.

[5] = patient 6, 300 mg BID, about 4 months plus about 1 month
[6] = patient 6, 300 mg BID, about 56 days
[7] = patient 7, 300 mg BID, after about 84 days
[8] = patient 8, 300 mg BID, after about 84 days
[9] = patient 9, 300 mg BID, after about 56 days

CN1CCN(c2nc(C3=C(c4c[nH]c5ccccc45)C(=O)NC3=O)c3ccccc3n2)CC1 [sotrastaurin]
inhibition of growth of uveal melanoma cells harboring GNAQ mutations [1]: selectively inhibit the growth

CC1(N)CCN(c2cccnc2NC(=O)c2nc(-c3ncccc3C(F)(F)F)cnc2N)CC1 [Compound 1]
reduction in the metabolic activity of the ocular tumor (FDG avidity) by SUV, PET ([2]; patient 2 (metastatic disease, intact ocular tumor), 300 mg BID, after about two weeks): 74%
reduction in the metabolic activity of the ocular tumor (FDG avidity) by SUV, PET ([2]; patient 4, 300 mg BID, after about one month): 42%
ocular tumor reduction in maximal apical height by ocular ultrasound ([3]; patient 1, 300 mg BID, after about 28 days): 22%
ocular tumor reduction in maximal apical height by ocular ultrasound ([3]; patient 3, 300 mg BID, after 28 days): ~10%
ocular tumor reduction in maximal apical height by ocular ultrasound ([3]; patient 4, 300 mg BID, after about 28 days): 31%
ocular tumor reduction in maximal apical height by ocular ultrasound ([3]; patient 5, 300 mg BID, about 28 days plus additional about 3 months): 24%
ocular tumor reduction in maximal apical height by ocular ultrasound ([3]; patient 5, 300 mg BID, after about 28 days): 13%
ocular tumor reduction in maximal apical height by ocular ultrasound ([3]; patient 6, 300 mg BID, 56 days plus about 2 months): 24%
ocular tumor reduction in maximal apical height by ocular ultrasound [3, 5]: 45%
reduction in Largest Basal Diameter by ocular ultrasound [3, 5]: 63%
ocular tumor reduction in maximal apical height by ocular ultrasound [3, 6]: 11%
reduction in Largest Basal Diameter by ocular ultrasound [3, 6]: 23%
ocular tumor reduction in maximal apical height by ocular ultrasound [3, 7]: 14.3%
reduction in Largest Basal Diameter by ocular ultrasound [3, 7]: 15.2%
ocular tumor reduction in maximal apical height by ocular ultrasound [3, 8]: 28.5%
reduction in Largest Basal Diameter by ocular ultrasound [3, 8]: 19.4%
ocular tumor reduction in maximal apical height by ocular ultrasound [3, 9]: 4.0%
reduction in Largest Basal Diameter by ocular ultrasound [3, 9]: 2.1%
patient-reported visual symptoms in affected eye ([4]; patient 2, 300 mg BID): improvement in visual symptoms in affected eye
eye outcome (plaque brachytherapy enabled instead of planned enucleation) ([4]; patient 5, 300 mg BID neoadjuvant): the eye was preserved
eye outcome (plaque brachytherapy enabled instead of planned enucleation) ([4]; patient 6, 300 mg BID neoadjuvant): the eye was preserved
